Source: patent publication US20240131173A1, “PROTACS WITH TRANSCRIPTION FACTOR TARGETING MOIETIES” (Beth Israel Deaconess Medical Center, Inc., priority 2021, published 2024)
“Also recorded” adds a separate entry of the source.

Experiments:
HeLa cells [1] = assay: Clonal (colony) formation assay; format: cell-based, human; conditions: HeLa cells
Method: (§1) For cell growth curve assay, HeLa cells (10, 000/well) in 12-well plate were transfected with individual TF-PROTAC, then the cells were trypsined and the cell number were counted at indicated time. For the clonal formation assay, HeLa cells were transfected with individual TF-PROTAC for 12 hours, followed by further plated into 6-well plate (1,000/well). Three weeks later, the cells were fixed in fixation buffer (acetic acid: methanol=1:7) and stained with 0.4% crystal violet in 20% ethanol. Then clonal number were quantified by Image J software. As various changes can be made in the above-described subject matter without departing from the scope and spirit of the present disclsoure, it is intended that all subject matter contained in the above description, or defined in the appended claims, be interpreted as descriptive and illustrative. Many modifications and variations of the present disclosure are possible in light of the above teachings. Accordingly, the present description is intended to embrace all such alternatives, modifications and variances which fall within the scope of the appended claims.

p65 [2] = target: T1, p65 (Homo sapiens, UniProt Q04206); assay: Streptavidin-biotin pulldown / competition assay of NF-κB-ODN with Flag-p65; format: binding; conditions: excess competitor
Method: To determine whether NF-κB-ODN binds with NF-κB properly, we also synthesized a biotin-modified version of NF-κB-ODN (hereafter termed as Biotin-NF-κB-ODN, FIGS. 3A-3C).
HEK293T cells that ectopically expressed either Flag-p65 or HAE2F1 were lysed by EBC buffer (50 mM Tris pH 7.5, 120 mM NaCl, 0.5% NP-40) supplemented with protease inhibitors (Pierce) and phosphatase inhibitors (phosphatase inhibitor cocktail set I and II, Calbiochem). The protein concentrations of the lysates were measured using the Bio-Rad protein assay reagent on a Beckman Coulter DU-800 spectrophotometer. The cell lysates (1 mg) were further incubated with biotin-ODN at 4 °C for 3 hours, followed by adding 10 μL of Streptavidin agarose beads (Thermo Fisher) for another 1 hour. The beads were washed 4 times with NETN buffer (100 mM NaCl, 20 mM Tris-Cl, pH 8.0, 0.5 mM EDTA, 0.5% NP-40), boiled in SDS loading buffer and further separated by 10% SDS-PAGE and blotted with individual antibody.
Target sequence in this assay (Q04206 whole entry): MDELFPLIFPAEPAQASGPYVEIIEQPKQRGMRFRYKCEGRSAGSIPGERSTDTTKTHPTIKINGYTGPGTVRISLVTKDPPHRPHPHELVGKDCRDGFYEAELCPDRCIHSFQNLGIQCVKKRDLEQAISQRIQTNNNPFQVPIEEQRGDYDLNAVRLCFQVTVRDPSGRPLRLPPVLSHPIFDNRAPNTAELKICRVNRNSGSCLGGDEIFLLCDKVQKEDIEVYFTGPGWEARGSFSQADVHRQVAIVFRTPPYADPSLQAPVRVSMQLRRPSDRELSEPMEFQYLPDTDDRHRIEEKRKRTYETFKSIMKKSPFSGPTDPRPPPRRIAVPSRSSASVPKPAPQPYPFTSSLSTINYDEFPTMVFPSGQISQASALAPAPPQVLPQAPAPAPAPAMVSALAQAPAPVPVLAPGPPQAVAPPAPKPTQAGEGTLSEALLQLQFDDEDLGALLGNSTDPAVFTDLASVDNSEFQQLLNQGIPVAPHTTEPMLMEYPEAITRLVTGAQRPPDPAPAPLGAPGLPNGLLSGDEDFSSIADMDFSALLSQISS

[3] = target: T2, VHL E3 ubiquitin ligase and E2F1 transcription factor (Homo sapiens, UniProt P40337+Q01094+Q14186); assay: GST pulldown assay of VHL E3 ligase complex and E2F1 with TF-PROTAC; format: binding; conditions: in vitro pulldown
T2 construct: made in house; host or cells: E. coli BL21(DE3) for the GST-VHL/Elongin B/C complex; HEK293T lysate for the transfected transcription factor
T2 sequence (P40337 whole entry): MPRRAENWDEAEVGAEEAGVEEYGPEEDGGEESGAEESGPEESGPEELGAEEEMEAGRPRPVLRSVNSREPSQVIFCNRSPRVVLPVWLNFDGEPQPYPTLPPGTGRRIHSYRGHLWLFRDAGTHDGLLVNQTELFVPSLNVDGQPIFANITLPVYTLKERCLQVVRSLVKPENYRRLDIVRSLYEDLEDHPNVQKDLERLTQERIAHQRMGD
T2 sequence (Q15370 whole entry partner): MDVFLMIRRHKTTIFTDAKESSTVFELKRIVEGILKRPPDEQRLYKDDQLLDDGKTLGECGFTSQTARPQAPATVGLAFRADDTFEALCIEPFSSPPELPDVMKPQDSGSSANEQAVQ
T2 sequence (Q15369 whole entry partner): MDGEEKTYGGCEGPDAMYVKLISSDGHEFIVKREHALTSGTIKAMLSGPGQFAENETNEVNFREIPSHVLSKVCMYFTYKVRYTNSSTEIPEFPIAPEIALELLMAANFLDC
T2 sequence (Q01094 whole entry): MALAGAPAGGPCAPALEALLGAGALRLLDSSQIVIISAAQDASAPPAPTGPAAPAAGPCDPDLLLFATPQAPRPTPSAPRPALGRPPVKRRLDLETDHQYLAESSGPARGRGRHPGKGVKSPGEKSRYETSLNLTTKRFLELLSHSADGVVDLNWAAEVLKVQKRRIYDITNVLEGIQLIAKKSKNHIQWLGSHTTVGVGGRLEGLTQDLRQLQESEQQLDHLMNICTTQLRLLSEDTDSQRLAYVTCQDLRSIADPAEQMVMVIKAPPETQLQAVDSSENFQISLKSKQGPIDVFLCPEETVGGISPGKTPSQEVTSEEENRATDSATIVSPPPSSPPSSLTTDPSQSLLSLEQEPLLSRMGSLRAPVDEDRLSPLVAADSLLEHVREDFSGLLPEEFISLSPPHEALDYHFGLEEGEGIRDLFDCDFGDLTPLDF
T2 sequence (Q14186 whole entry): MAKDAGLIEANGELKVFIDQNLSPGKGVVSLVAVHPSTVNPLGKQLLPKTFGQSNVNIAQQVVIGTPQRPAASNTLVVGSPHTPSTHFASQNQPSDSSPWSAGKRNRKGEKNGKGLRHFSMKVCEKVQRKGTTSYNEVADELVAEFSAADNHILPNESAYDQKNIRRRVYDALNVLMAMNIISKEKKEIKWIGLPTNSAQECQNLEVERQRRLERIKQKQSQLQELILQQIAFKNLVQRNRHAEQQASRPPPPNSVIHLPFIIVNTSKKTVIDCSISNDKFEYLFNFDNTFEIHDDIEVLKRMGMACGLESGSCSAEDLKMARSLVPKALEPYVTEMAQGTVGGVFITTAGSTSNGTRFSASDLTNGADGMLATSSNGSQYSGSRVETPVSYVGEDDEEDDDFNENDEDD
Method: (§2) pGEX-GST-VHL/ElonginB construct was kindly gift from Dr. William Kaelin, Jr. at Dana-Farber Cancer Institute, Harvard Medical School. pGEX-GST-Elongin C plasmid was generated by subcloning Elongin C CDS into the BamHI and Xhol sites of pGEX-4T1-GST vector. The GST-VHL/ElonginB/C complex was purified as described 43. Briefly, BL21(DE3) E. coli was cotransfected with pGEX-GST-VHL/ElonginB and pGEX-GSTElonginC plasmid. Protein expression was induced by 100 μM isopropyl beta-D-thiogalactopyranoside (IPTG, Fisher Scientific) at 18° C.overnight. Then, the bacterial culture was centrifuged and sonicated in PBS buffer with protease inhibitor cocktail. Protein lysates were further purified with glutathione-Sepharose beads (GE17-0756-05) and washed with PBS for 5 times.
(§3) Glutathione-Sepharose beads loaded with GST-VHL E3 ligase complex were incubated at 4° C. with cell lysate derived from HEK293T cells that ectopic transfected with individual transfection factor. After incubation for 3 hours, TF-PROTACs were added into the mixture for another 2 hours, followed by wash with NETN buffer for 3 times. The pulldown products were further separated by 10% SDS-PAGE and blotted for indicated proteins.

[4] = target: T3, VHL E3-PROTAC-p65 ternary complex (Homo sapiens, UniProt P40337+Q04206); assay: GST pulldown assay of VHL E3 ligase complex and p65 with TF-PROTAC; format: binding; conditions: GST-VHL complex from E. coli, HEK293T lysate with Flag-p65, in vitro
T3 construct: made in house; host or cells: E. coli BL21(DE3) for the GST-VHL/Elongin B/C complex; HEK293T lysate for Flag-p65
T3 sequence (P40337 whole entry): as the sequence (P40337 whole entry) above
T3 sequence (Q15370 whole entry partner): as the sequence (Q15370 whole entry partner) above
T3 sequence (Q15369 whole entry partner): as the sequence (Q15369 whole entry partner) above
T3 sequence (Q04206 whole entry): as the sequence (Q04206 whole entry) above
From the text: Furthermore, dNF-κB is capable of recruiting VHL E3 ubiquitin ligase to POI, NF-κB. […] However, dNF-κB obtained in current stage could not efficiently promote the degradation of p65 in cells, which prompted further optimization of the length of linker between the VHL ligand and DNA oligomer moieties for achieving efficient destruction of NF-κB in cells.
as §2, §3

p65 [5] = target: T4, p65 (Homo sapiens, UniProt P19838+Q04206); assay: Western blot of p65 in HeLa cells transfected with TF-PROTAC; format: cell-based; conditions: 12 hours, dNF-κB #1-#18 compared
T4 construct: endogenous in cells; host or cells: HeLa
T4 sequence (Q04206 whole entry): as above
T4 sequence (P19838 1-433 limits assumed): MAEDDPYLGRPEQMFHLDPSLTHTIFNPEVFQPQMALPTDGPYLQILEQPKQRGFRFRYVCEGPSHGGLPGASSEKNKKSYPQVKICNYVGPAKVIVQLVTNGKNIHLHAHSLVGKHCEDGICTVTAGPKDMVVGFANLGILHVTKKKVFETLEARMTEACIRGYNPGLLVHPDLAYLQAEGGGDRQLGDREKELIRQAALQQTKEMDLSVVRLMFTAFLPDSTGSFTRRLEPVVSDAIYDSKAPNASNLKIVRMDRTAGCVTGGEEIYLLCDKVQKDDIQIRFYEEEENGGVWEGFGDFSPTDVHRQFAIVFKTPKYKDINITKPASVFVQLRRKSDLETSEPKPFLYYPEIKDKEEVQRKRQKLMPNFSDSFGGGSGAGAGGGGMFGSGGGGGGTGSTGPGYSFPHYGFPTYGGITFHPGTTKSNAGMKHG
Method: (§4) Human embryonic kidney 293T (HEK293T) and HeLa cells were maintained in Dulbecco's Modified Eagle's Medium (DMEM) containing 10% fetal bovine serum (FBS), 100 Units/mL of penicillin and 100 μg/mL streptomycin. For ectopic expression of transcription factors, Flag-p65 and HA-E2F1 were transfected into HEK293T cells and harvested for lysis 48 hours after transfection. For TF-PROTACs treatment, HeLa cells in 12-well plate were transfected with individual TF-PROTAC for 12 hours, followed by harvest for western blot analysis. […] For depletion of endogenous VHL E3 ligase, two sgRNA for VHL E3 ligase were synthesized and inserted into lenti-CRISPR-V2 construct 40. The sgVHL lentivirus were generated in HEK293T cells as previously described 41-42 for infection of HeLa cells overnight, followed by selection with puromycin for 72 h.
Cells were lysed in EBC buffer supplemented with protease inhibitors cocktail and phosphatase inhibitors, and the protein concentrations were measured as described above. The lysates (40 ug protein) were then resolved by 10% SDS-PAGE at 130 V for 80 min and immunoblotted with indicated antibodies at 4° C. overnight, washed 4 times with Tris-buffered saline with 0.1% Tween-20 (TBST), incubated with secondary antibody for 1 hour at room temperature, and then washed 4 times with TBST buffer. Anti-p65 (#8742, 1:1,000) and E2F1 (#3742, 1:500) antibodies were purchased from Cell Signaling Technologies. Anti-HA antibody (#901513, 1:1,000) was purchased from Biolegend. Anti-Flag (F3165, 1:5,000), anti-vinculin antibody (V-4505, 1:50,000), peroxidase-conjugated anti-mouse secondary antibody (A-4416, 1:3,000) and peroxidase-conjugated anti-rabbit secondary antibody (A-4914, 1:3,000) were purchased from Sigma. All primary antibodies were diluted in 5% bovine serum albumin (BSA) in TBST buffer, and secondary antibodies were diluted in 5% non-fat milk in TBST buffer.

p65 [6] = target: T1, p65; assay: In vivo ubiquitination assay of p65 (Ni-NTA pulldown); format: cell-based; conditions: HEK293T cells, Flag-p65 24 hours, then dNF-κB 12 hours
Method: Denatured in vivo ubiquitination assays were performed as previously described 41. Briefly, HEK293T cells were firstly transfected with Flag-p65 or HA-E2F1 for 24 hours, followed by additional transfection of individual TF-PROTAC for another 12 hours. Before been harvested, HEK293T cells were treated with 30 μM of MG132 for 4 hours. After having been harvested in denatured buffer A (6 M guanidine-HCI, pH 8.0, 0.1 M Na2HPO4/NaH2PO4, and 10 mM imidazole) and sonication for 10 seconds, cell lysis was incubation with Ni-nitrilotriacetic acid (NTA) matrices under rotation for 3 hours at room temperature. The pulldown products were washed sequentially twice in buffer A, twice in buffer A/TI mixture (buffer A, buffer TI=1:3, v/v), and once in buffer TI (25 mM tris-HCl, pH 6.8, and 20 mM imidazole). The ubiquitinated proteins were finally separated by 7% SDS-PAGE and blotted with individual antibody.
Target sequence in this assay (Q04206 whole entry): as the sequence (Q04206 whole entry) above

p65 [7] = target: T1, p65; assay: Western blot of p65 in HeLa cells transfected with TF-PROTAC; format: cell-based; set-up: endogenous in cells; host or cells: HeLa; conditions: 10 uM MG132
Method: as §4
Target sequence in this assay (Q04206 whole entry): as above
Target sequence in this assay (P19838 1-433 limits assumed, further chain): as the sequence (P19838 1-433 limits assumed) above
Cells were lysed in EBC buffer supplemented with protease inhibitors cocktail and phosphatase inhibitors, and the protein concentrations were measured as described above. The lysates (40 ug protein) were then resolved by 10% SDS-PAGE at 130 V for 80 min and immunoblotted with indicated antibodies at 4° C. overnight, washed 4 times with Tris-buffered saline with 0.1% Tween-20 (TBST), incubated with secondary antibody for 1 hour at room temperature, and then washed 4 times with TBST buffer. […]

HeLa cells [8] = assay: Cell growth curve assay (cell number); format: cell-based, human; conditions: 10 ug/mL
Method: as §1

Substance | competition with Biotin-NF-κB-ODN for binding to p65 (p65 [2]) | VHL E3 ligase-p65 binding (ternary complex) induced by PROTAC [4] | p65 signal / degradation efficiency in western blot (p65 [5]) | ubiquitination of p65 in cells (p65 [6]) | further results
5′-TGGGGACTTTCCAGTTTCTGGAAAGTCCCCA-3′ (chemistry not given here) [NF-κB-ODN, reference compound] | competed with Biotin-NF-κB-ODN for the binding with p65 |  |  |  | tumorigenesis ability (colony formation) (HeLa cells [1]): not
N3-NF-κB-ODN: azide modification version of NF-κB-ODN, azide group on the 5′ end through the 5′ amino modifier C6 (TGGGGACTTTCCAGTTTCTGGAAAGTCCCCA; chemistry not fully specified) [Compound N3-NF-κB-ODN] | competed with Biotin-NF-κB-ODN for the binding with p65 |  |  |  | 
dE2F #15 (chain 1 CTAGATTTCCCGCG; chain 2 CTAGCGCGGGAAAT; DNA, backbone and methylation of C not given here; further chemistry not fully specified) |  |  |  |  | binding between VHL E3 ubiquitin ligase and E2F1 recruited by PROTAC [3]: recruited the binding between the VHL E3 ubiquitin ligase and E2F1 transcription factor in vitro
dNF-κB #1 (TGGGGACTTTCCAGTTTCTGGAAAGTCCCCA; DNA, backbone and methylation of C not given here; further chemistry not fully specified) | competed with Biotin NF-κB for binding to RelA/p65 | induced the VHL E3-PROTAC-p65 ternary complex formation |  |  | 
dNF-κB #4 (TGGGGACTTTCCAGTTTCTGGAAAGTCCCCA; VHL ligand conjugate via C4 linker, further chemistry not given here) |  | recruited the binding between the VHL E3 ubiquitin ligase and p65 in vitro | lowest p65 signal | lead to the ubiquitination of p65 in cells | 
dNF-κB #7 (TGGGGACTTTCCAGTTTCTGGAAAGTCCCCA; VHL ligand conjugate via C7 linker, further chemistry not given here) |  | recruited the binding between the VHL E3 ubiquitin ligase and p65 in vitro | lowest p65 signal | lead to the ubiquitination of p65 in cells | 
dNF-κB #15 (TGGGGACTTTCCAGTTTCTGGAAAGTCCCCA; decoy; VHL ligand conjugate via PEG2 linker, further chemistry not given here) |  | recruited the binding between the VHL E3 ubiquitin ligase and p65 in vitro | lowest p65 signal; also recorded: best degradation efficiency | lead to the ubiquitination of p65 in cells | degradation of endogenous p65 under proteasome inhibitor MG132 (p65 [7]): blocked the degradation of endogenous p65; tumorigenesis ability (colony formation) (HeLa cells [1]): inhibited; proliferation of HeLa cells (cell number) (HeLa cells [8]): repressed the proliferation of HeLa cells
dNF-κB #18 (TGGGGACTTTCCAGTTTCTGGAAAGTCCCCA; decoy; VHL ligand conjugate via PEG5 linker, further chemistry not given here) |  | recruited the binding between the VHL E3 ubiquitin ligase and p65 in vitro | lowest p65 signal | lead to the ubiquitination of p65 in cells | 
